In ChEMBL document CHEMBL1201862, “PubChem BioAssay data set” (2004):
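48-hour exposure; five concentrations; linearly interpolated endpoints. Here, GI50 denotes the concentration required for 50% inhibition of growth.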 The source made the active and inactive calls. Cut-off read from the data, not from the text of the source: active = GI50 up to about 1.1 µM and inactive = higher.

Experiments:
Assay in all cases: NCI tumour cell line growth inhibition, 48 h
TK-10 = test system: TK-10
SF-295 = test system: SF-295
COLO 205 = test system: COLO 205
RXF 393 = test system: RXF 393
SNB-78 = test system: SNB-78
U-251 = test system: U-251
EKVX = test system: EKVX
SNB-19 = test system: SNB-19
SF-539 = test system: SF-539
KM-20L2 = test system: KM-20L2
HOP-92 = test system: HOP-92
UO-31 = test system: UO-31
DLD-1 = test system: DLD-1
CAKI-1 = test system: CAKI-1
Malme-3M = test system: Malme-3M
RPMI-8226 = test system: RPMI-8226
HL-60 = test system: HL-60
UACC-257 = test system: UACC-257
SW-620 = test system: SW-620
KM12 = test system: KM12
HCT-116 = test system: HCT-116
HOP-62 = test system: HOP-62
NCI-H226 = test system: NCI-H226
A498 = test system: A498
SN12C = test system: SN12C
NCI-H522 = test system: NCI-H522
LXFL 529 = test system: LXFL 529
MOLT-4 = test system: MOLT-4
UACC-62 = test system: UACC-62
K562 = test system: K562
A549 = test system: A549
OVCAR-5 = test system: OVCAR-5
DMS-114 = test system: DMS-114
IGROV-1 = test system: IGROV-1
HT-29 = test system: HT-29
OVCAR-4 = test system: OVCAR-4
ACHN = test system: ACHN
SNB-75 = test system: SNB-75
M14 = test system: M14
786-0 = test system: 786-0
SF-268 = test system: SF-268
OVCAR-3 = test system: OVCAR-3
HCC 2998 = test system: HCC 2998
SK-OV-3 = test system: SK-OV-3
XF498 = test system: XF498
SK-MEL-5 = test system: SK-MEL-5
NCI-H460 = test system: NCI-H460
HCT-15 = test system: HCT-15
NCI-H23 = test system: NCI-H23
LOX IMVI = test system: LOX IMVI
RXF 631 = test system: RXF 631
SK-MEL-28 = test system: SK-MEL-28
CCRF-CEM = test system: CCRF-CEM
OVCAR-8 = test system: OVCAR-8
DMS-273 = test system: DMS-273
PC-3 = test system: PC-3
MDA-MB-435 = test system: MDA-MB-435
SR = test system: SR
MCF7 = test system: MCF7
SK-MEL-2 = test system: SK-MEL-2
Hs-578T = test system: Hs-578T
MDA-MB-231 = test system: MDA-MB-231
T47D = test system: T47D
MDA-N = test system: MDA-N
DU-145 = test system: DU-145
M19-MEL = test system: M19-MEL
BT-549 = test system: BT-549

Measured: GI50

COC(=O)C1=C(O)c2cc(OC)c(OC)c(OC)c2[C@H](c2cc(OC)c(OC)c(OC)c2)C1C(=O)OC (some centres not stated)
28.8 µM: HCT-15
inactive: TK-10 > 100 µM | SF-295 13.6 µM | COLO 205 15.8 µM | RXF 393 20.7 µM | SNB-78 32.1 µM | U-251 36.5 µM | EKVX 55.5 µM | SNB-19 38.3 µM | SF-539 14.2 µM | KM-20L2 18.2 µM | HOP-92 9.89 µM | UO-31 41.9 µM | DLD-1 45.1 µM | CAKI-1 > 100 µM | Malme-3M 49.3 µM | RPMI-8226 28.2 µM | HL-60 16.8 µM | UACC-257 44.4 µM | SW-620 29 µM | KM12 21.9 µM | HCT-116 37.6 µM | HOP-62 59.8 µM | NCI-H226 49.3 µM | A498 30.1 µM | SN12C 50.8 µM | NCI-H522 13.5 µM | LXFL 529 31.1 µM | MOLT-4 22.2 µM | UACC-62 14 µM | K562 24.5 µM | A549 49.8 µM | OVCAR-5 > 100 µM | DMS-114 30.6 µM | IGROV-1 36.2 µM | HT-29 22.8 µM | OVCAR-4 32.6 µM | ACHN 46.8 µM | SNB-75 38.7 µM | M14 26 µM | 786-0 34 µM | SF-268 42.1 µM | OVCAR-3 22.9 µM | HCC 2998 27.6 µM | SK-OV-3 35 µM | XF498 51.8 µM | SK-MEL-5 12.3 µM | NCI-H460 7.18 µM | NCI-H23 31.2 µM | LOX IMVI 41.1 µM | RXF 631 41.7 µM | SK-MEL-28 21.8 µM | CCRF-CEM 32.8 µM | OVCAR-8 36.4 µM | DMS-273 15.8 µM

CC1=C(C(=O)Nc2ccccc2C)C(c2ccc(C3C(C(=O)Nc4ccccc4C)=C(C)NC(C)=C3C(=O)Nc3ccccc3C)cc2)C(C(=O)Nc2ccccc2C)=C(C)N1
inactive: TK-10 10.7 µM | SF-295 4.57 µM | PC-3 4.39 µM | MDA-MB-435 4.32 µM | COLO 205 3.7 µM | RXF 393 4.31 µM | SNB-78 4.16 µM | U-251 2.25 µM | EKVX 7.31 µM | SNB-19 11.9 µM | SF-539 4.44 µM | KM-20L2 3.74 µM | HOP-92 8.38 µM | UO-31 13.4 µM | DLD-1 2.27 µM | CAKI-1 7.1 µM | SR 2.67 µM | Malme-3M 2.19 µM | RPMI-8226 2.51 µM | MCF7 3.37 µM | HL-60 2.53 µM | UACC-257 2.8 µM | SK-MEL-2 9.23 µM | Hs-578T 14 µM | SW-620 2.49 µM | KM12 2.16 µM | HCT-116 2.21 µM | HOP-62 21.1 µM | NCI-H226 14.1 µM | A498 15.5 µM | SN12C 1.71 µM | NCI-H522 1.89 µM | LXFL 529 2.84 µM | MDA-MB-231 2.29 µM | T47D 4.24 µM | MOLT-4 2.48 µM | MDA-N 5.6 µM | UACC-62 2.03 µM | K562 2.87 µM | A549 10.8 µM | OVCAR-5 14.1 µM | DMS-114 3.75 µM | IGROV-1 3.16 µM | HT-29 2.03 µM | DU-145 15.9 µM | OVCAR-4 8.99 µM | ACHN 4.52 µM | SNB-75 14.4 µM | M19-MEL 3.83 µM | M14 2.82 µM | 786-0 3.47 µM | BT-549 2.75 µM | SF-268 2.58 µM | OVCAR-3 6.67 µM | HCC 2998 4.51 µM | SK-OV-3 15.3 µM | XF498 15.8 µM | SK-MEL-5 12.1 µM | NCI-H460 9.04 µM | NCI-H23 3.21 µM | LOX IMVI 1.63 µM | RXF 631 12.8 µM | SK-MEL-28 2.04 µM | CCRF-CEM 1.95 µM | OVCAR-8 2.8 µM | DMS-273 3.16 µM
9.4 µM: HCT-15
